Test: xn = mol fraction of the nth substance listed, in the solute-free solvent

CCC(C)n1ncn(-c2ccc(N3CCN(c4ccc(OCC5COC(Cn6cncn6)(c6ccc(Cl)cc6Cl)O5)cc4)CC3)cc2)c1=O (stereo not given) + ClC(Cl)Cl + CCO
solubility (g/100 g solution)
Details	x2 = 0.04158	x2 = 0.08894	x2 = 0.1434	x2 = 0.2065	x2 = 0.2808	x2 = 0.3694	x2 = 0.4767	x2 = 0.6097	x2 = 0.7785
288.15 K	0.0692	0.133	0.268	0.494	1.05	3.89	10.7	19.4	26.1
293.15 K	0.0835	0.16	0.32	0.565	1.38	4.82	12	20.6	26.9
298.15 K	0.0993	0.189	0.375	0.644	1.77	6	13.4	21.8	27.8
303.15 K	0.117	0.225	0.442	0.733	2.24	7.3	14.8	23	28.7
308.15 K	0.138	0.267	0.516	0.832	2.82	8.83	16.4	24.2	29.5

Cc1[nH]c(=O)c(C#N)cc1-c1ccncc1 + CC(C)O + O
solubility (g/100 g solution)
Details	278.15 K	283.15 K	288.15 K	293.15 K	298.15 K	303.15 K	308.15 K	313.15 K	318.15 K	323.15 K
x2 = 0.03225	0.00105	0.00126	0.00148	0.00173	0.00202	0.00231	0.00261	0.00296	0.00333	0.00376
x2 = 0.06974	0.00174	0.00206	0.00243	0.00283	0.0033	0.00374	0.00423	0.00479	0.00537	0.00604
x2 = 0.1139	0.00266	0.00311	0.00366	0.00429	0.00498	0.00565	0.00635	0.00712	0.00801	0.00906
x2 = 0.1666	0.00378	0.00445	0.00523	0.00608	0.00705	0.00798	0.009	0.0102	0.0114	0.0128
x2 = 0.2307	0.00502	0.00587	0.00684	0.00797	0.00927	0.0105	0.0119	0.0135	0.0151	0.017
x2 = 0.3103	0.00629	0.00741	0.00871	0.0101	0.0118	0.0133	0.015	0.0171	0.019	0.0214
x2 = 0.4117	0.00743	0.00875	0.0102	0.0119	0.0137	0.0155	0.0178	0.02	0.0224	0.0256
x2 = 0.5454	0.0083	0.00978	0.0115	0.0135	0.0155	0.0177	0.02	0.0226	0.0256	0.0291
x2 = 0.7297	0.00873	0.0102	0.012	0.0141	0.0163	0.0188	0.0214	0.0243	0.0274	0.0314

CCC(C)n1ncn(-c2ccc(N3CCN(c4ccc(OCC5COC(Cn6cncn6)(c6ccc(Cl)cc6Cl)O5)cc4)CC3)cc2)c1=O (stereo not given) + ClCCl + CCO
solubility (g/100 g solution)
Details	x2 = 0.05744	x2 = 0.1206	x2 = 0.1903	x2 = 0.2677	x2 = 0.3542	x2 = 0.4513	x2 = 0.5613	x2 = 0.6869	x2 = 0.8315
288.15 K	0.0488	0.124	0.37	1.04	2.95	7.26	15.2	21.3	25.9
293.15 K	0.0616	0.163	0.436	1.35	3.51	8.44	16.3	22.6	27
298.15 K	0.0776	0.215	0.511	1.72	4.09	9.83	17.6	24	28.2
303.15 K	0.0979	0.279	0.598	2.16	4.81	11.3	18.8	25.4	29.3
308.15 K	0.122	0.362	0.694	2.7	5.58	13	20.1	26.7	30.5

— the CheMixHub drug solubility set
